From patent publication US4742047A, “Semi-synthetic peptide antibiotics” (Bristol-Myers Company, priority 1986, dated 1988)

How the values were obtained:
[1] = system: P388 leukemia; experiment: Antitumor effect against in vivo murine transplantable P388 leukemia; design: species or system mice
Procedure: (§1) Antitumor activity of representative compounds of the present invention was determined using in vivo murine transplantable P388 leukemia and B16 melanoma models.
P388 leukemia: female CDF1 and male BDF1 mice were inoculated by intraperitoneal injection of 0.8 ml diluted ascitic fluid containing 10^6 cells.
(§2) Test materials were dissolved in 0.9% saline containing 10% dimethyl sulfoxide and graded doses of them were administered to mice intraperitoneally 24 hrs after tumor implantation. Two dosing schedules were used for the p388 leukemia experiment: once daily on day 1 through day 3 (QD 1→3); and once daily on day 1 through day 9 (QD 1→9). The QD 1→9 schedule was used for the B16 melanoma experiment.
(§3) Antitumor activity is evaluated as the increase in mediam survival time (MST) of treated (T) and control (C) animals for various dosage regimens expressed as a percentage ratio (T/C %=MST of treated.div.MST of control×100). For both in vivo P388 leukemia and in vivo B16 melanoma models, values for percentage ratios of 125 and above indicate significant antitumor effect.

[2] = system: ddy mice; settings: single intraperitoneal administration
Procedure: The acute toxicity for compounds of Examples 1, 2, and 3 was determined in ddy mice by single intraperitoneal administration.

[3] = system: B16 melanoma; experiment: Antitumor effect against in vivo murine B16 melanoma; design: species or system mice; settings: QD 1→9 ip
Procedure: as §1
B16 melanoma; male BDF1 mice were implanted with 0.5 ml of a 10% tumor brei intraperitoneally.
as §2, §3

Structure (SMILES)	MST (% T/C) ([1]; 0.13 mg/kg/day, QD 1→9 ip)	MST (% T/C) ([1]; 0.25 mg/kg/day, QD 1→9 ip)	MST (% T/C) ([1]; 0.5 mg/kg/day, QD 1→9 ip)	MST (% T/C) ([1]; 1 mg/kg/day, QD 1→3 ip)	MST (% T/C) ([1]; 1 mg/kg/day, QD 1→9 ip)	MST (% T/C) ([1]; 2 mg/kg/day, QD 1→9 ip)	MST (% T/C) ([1]; 3 mg/kg/day, QD 1→3 ip)	MST (% T/C) ([1]; 4 mg/kg/day, QD 1→9 ip)	MST (% T/C) ([1]; 10 mg/kg/day, QD 1→3 ip)	LD50 [2]	MST (% T/C) ([3]; 1 mg/kg/day)	MST (% T/C) ([3]; 2 mg/kg/day)	MST (% T/C) ([3]; 4 mg/kg/day)	MST (% T/C) ([3]; .25 mg/kg/day)	MST (% T/C) ([3]; .5 mg/kg/day)	MST (% T/C) ([1]; 0.63 mg/kg/day, QD 1→9 ip)	MST (% T/C) ([1]; .3 mg/kg/day, QD 1→3 ip)
CCCCCCCCCC(=O)N[C@H](C(=O)NC1CC(O)CCNC(=O)/C=C/C(C)NC1=O)[C@@H](C)O (stereo partly drawn) [Example 2, n-Decanoyl-III]	109 % T/C	123 % T/C	123 % T/C	123 % T/C	127 % T/C	145 % T/C	127 % T/C	155 % T/C	64 % T/C	50 mg/kg							
CCCCCCCCCCCCCC(=O)N[C@H](C(=O)NC1CC(O)CCNC(=O)/C=C/C(C)NC1=O)[C@@H](C)O (stereo partly drawn) [Example 3, n-Tetradecanoyl-III]	118 % T/C	132 % T/C	132 % T/C	127 % T/C	150 % T/C	150 % T/C	132 % T/C	159 % T/C	55 % T/C	> 25 mg/kg	116 % T/C	124 % T/C	145 % T/C	113 % T/C	113 % T/C		
CCCCCCCCCCCCCCC(O)C(=O)N[C@H](C(=O)NC1CC(O)CCNC(=O)/C=C/C(C)NC1=O)[C@@H](C)O (stereo partly drawn) [Example 5, 2-Hydroxy-hexadecanoyl-III]				118 % T/C			132 % T/C		132 % T/C								
CCCCCCCCOc1ccc(C(=O)N[C@H](C(=O)NC2CC(O)CCNC(=O)/C=C/C(C)NC2=O)[C@@H](C)O)cc1 (stereo partly drawn) [Example 6, p-n-Octyloxybenzoyl-III]	140 % T/C	150 % T/C	155 % T/C	150 % T/C	Tox		Tox									120 % T/C	125 % T/C
CCCCCCCCCCCCCCCC(=O)N[C@H](C(=O)NC1CC(O)CCNC(=O)/C=C/C(C)NC1=O)[C@@H](C)O (stereo partly drawn) [Example 10, Palmitoyl-L-Threonyl-II]				114 % T/C			119 % T/C		138 % T/C								
